“And” between values parts separate entries of the source, which are not always exact repeats. Identical values can stand only once. Like-named read-outs stand apart in the source and are kept apart here.
What was measured:
[1] = Phase 1 study of normal healthy human subjects, 45 mg Radiprodil (30% Formulation) fed and fasted; format: in vivo; settings: for AUC(0-inf) / AUC(0-t) / Cmax: human, in vivo, oral; for AUC(0-inf): read-out: AUCinf Geometric LSM; for AUC(0-t): read-out: AUClast Geometric LSM; for Cmax: read-out: Cmax Geometric LSM
[2] = tested on: audiogenic seizures; experiment: audiogenic seizure model (generalized seizures); format: in vivo; settings: adult mice
[3] = biological target: T1, NR2B receptor (Rattus norvegicus, UniProt P35439+Q00960); experiment: NR2B occupancy at rat doses, based on ex-vivo occupancy study in rodents
T1 construct: occupancy of the NR2B receptor, based on an ex-vivo occupancy study in rodents; from tissue; host or cells: rodent brain (ex vivo occupancy; brain is implied by the 1:1 brain to plasma ratio)
Description: (§1) Radiprodil anticonvulsant efficacy was specifically tested in rats at different time points during postnatal development, using pentylenetetrazole (PTZ) as a convulsant, to induce generalized clonic-tonic seizures. The activity of radiprodil in this juvenile PTZ rat model was tested up to 30 mg/kg, showing efficacy at a dose of 1 mg/kg. The calculated free plasma fraction of an orally administered 1 mg/kg dose is expected to give around 60% occupancy of the NR2B receptor, based on an ex-vivo occupancy study in rodents and assuming a 1:1 brain to plasma ratio, see below for further details.

[4] = tested on: pentylenetetrazole (PTZ)-induced generalized clonic-tonic seizures; experiment: juvenile PTZ rat model; format: in vivo
Description: as §1

[5] = in vivo; settings: dog
[6] = phase 1B study, behavioral cohort: treatment emergent adverse events; format: in vivo, human
Description: Pyrexia, diarrhoea, and respiratory tract infection were the most common TEAEs. Three patients experienced SAEs, all unrelated to radiprodil treatment. One each of adenovirus infection, bronchiolitis, and viral pneumonia.

[7] = 9-month dog toxicology study; format: in vivo; settings: 1.5 mg/kg/day
[8] = cited from earlier work
[9] = phase 1B study, seizure cohort: treatment emergent adverse events; format: in vivo
Description: The primary objectives of this study are to determine the safety and tolerability of multiple individually titrated doses of radiprodil as an add-on therapy to standard of care (SOC) in pediatric participants; establish a safe and well-tolerated dose; and to determine the pharmacokinetics (PK) and plasma exposure of radiprodil. Endpoints of these primary objectives include: adverse events (AEs), serious adverse events (SAEs), and adverse drug reactions (ADRs) (frequency, type, severity, and duration); changes in vital signs; physical examination findings; 12-lead electrocardiogram (ECG) findings; clinically significant changes in laboratory parameters; emergence of new seizure types; occurrence of suicidal ideation or behavior; determination of the maximum tolerated dose of radiprodil based on safety and tolerability data; and plasma concentrations of radiprodil.
Pyrexia, diarrhoea, and respiratory tract infection were the most common TEAEs. Three patients experienced SAEs, all unrelated to radiprodil treatment. One each of adenovirus infection, bronchiolitis, and viral pneumonia

[10] = tested on: countable motor seizure (CMS); experiment: phase 1B study, seizure cohort: efficacy; format: in vivo, human
Description: Investigational Product (IP): Radiprodil. This example describes an open-label, multicenter phase 1B study being conducted to evaluate the safety, tolerability, and pharmacokinetics (PK) of multiple individually titrated doses of radiprodil and to assess the treatment effect on seizures in participants with drug-resistant seizures caused by gain-of-function (GoF) variants in the GRIN1, GRIN2A, GRIN2B, or GRIN2D genes (GRIN2B GoF variants in the US only).
(§2) This is a global, open-label, multicenter, phase 1B study to evaluate the safety, tolerability, and PK of multiple individually titrated doses of radiprodil and to assess the treatment effect on seizures and behavioral symptoms in 2 cohorts of pediatric participants: 1 cohort of participants with drug resistant seizures (with or without behavioral symptoms) (Cohort 1) and 1 cohort of participants with behavioral symptoms (but no qualifying seizures) (Cohort 2) caused by GoF variants in the GRIN1, 2A, 2B, or 2D genes (GRIN2B GoF variants only in the US). These GoF variants are gene mutations that cause an increased sensitivity of NMDA receptors to glutamate or through decreased inhibition by magnesium, altered affinity to glycine, or other relevant changes considered to increase NMDA transmission. Drug-resistant seizures are defined as a failure to respond to at least 2 antiseizure medication (ASM) therapies taken at adequate doses for an appropriate duration with assured medication adherence as determined by the treating physician. Participants with seizures to be enrolled in the first cohort should have at least 1 observable motor seizure per week and ≥4 observable motor seizures in the prospective 4-week Observation Period.
A seizure cohort of patients from 6 months to 12 years of age with known GoF variants confirmed via method described in Myers, et al., Hum Mol Genetics. 2023, 32:2857-2871, was enrolled. The patients had drug-resistant seizures with or without behavioral symptoms. Patients also had ≥1 weekly countable motor seizure (CMS) with ≥4 generalized or focal seizures during the observation period. Motor seizures included drop seizures; generalized onset seizures included tonic-clonic, tonic, bilateral clonic, atonic, myoclonic-atonic, and myoclonic-tonic-clonic seizures; and focal seizures included seizures with bilateral hyperkinetic motor features and clonic seizures.
Primary endpoints included safety, tolerability, and radiprodil plasma concentrations. Key secondary endpoints (aka, change from baseline in observable daily CMS frequency using an electronic diary (eDiary)), included ≥50%, ≥90%, and 100% reductions from baseline in seizure frequency; proportion of seizure-free days; and Clinical Global Impressions of Change (CGI-C) and Caregiver Global Impressions of Change (CaGI-C), from baseline to the end of the maintenance period.

[11] = in vivo; settings: rat
[12] = 135 mg daily (45 mg tid) up to 14 weeks; cited from earlier work
[13] = tested on: behavioral symptoms; experiment: phase 1B study, behavioral cohort: global impressions of change; format: in vivo, human; settings: clinicians and caregivers
Description: as §2
A behavioral cohort of patients from 6 months to 12 years of age with known GoF variants confirmed via method described in Myers, et al., Hum Mol Genetics. […]

[14] = all unrelated to radiprodil treatment
[15] = 2 participants, doses up to 0.2 mg/kg bid

T1 sequence (Q00960 27-1482, other chains not shown): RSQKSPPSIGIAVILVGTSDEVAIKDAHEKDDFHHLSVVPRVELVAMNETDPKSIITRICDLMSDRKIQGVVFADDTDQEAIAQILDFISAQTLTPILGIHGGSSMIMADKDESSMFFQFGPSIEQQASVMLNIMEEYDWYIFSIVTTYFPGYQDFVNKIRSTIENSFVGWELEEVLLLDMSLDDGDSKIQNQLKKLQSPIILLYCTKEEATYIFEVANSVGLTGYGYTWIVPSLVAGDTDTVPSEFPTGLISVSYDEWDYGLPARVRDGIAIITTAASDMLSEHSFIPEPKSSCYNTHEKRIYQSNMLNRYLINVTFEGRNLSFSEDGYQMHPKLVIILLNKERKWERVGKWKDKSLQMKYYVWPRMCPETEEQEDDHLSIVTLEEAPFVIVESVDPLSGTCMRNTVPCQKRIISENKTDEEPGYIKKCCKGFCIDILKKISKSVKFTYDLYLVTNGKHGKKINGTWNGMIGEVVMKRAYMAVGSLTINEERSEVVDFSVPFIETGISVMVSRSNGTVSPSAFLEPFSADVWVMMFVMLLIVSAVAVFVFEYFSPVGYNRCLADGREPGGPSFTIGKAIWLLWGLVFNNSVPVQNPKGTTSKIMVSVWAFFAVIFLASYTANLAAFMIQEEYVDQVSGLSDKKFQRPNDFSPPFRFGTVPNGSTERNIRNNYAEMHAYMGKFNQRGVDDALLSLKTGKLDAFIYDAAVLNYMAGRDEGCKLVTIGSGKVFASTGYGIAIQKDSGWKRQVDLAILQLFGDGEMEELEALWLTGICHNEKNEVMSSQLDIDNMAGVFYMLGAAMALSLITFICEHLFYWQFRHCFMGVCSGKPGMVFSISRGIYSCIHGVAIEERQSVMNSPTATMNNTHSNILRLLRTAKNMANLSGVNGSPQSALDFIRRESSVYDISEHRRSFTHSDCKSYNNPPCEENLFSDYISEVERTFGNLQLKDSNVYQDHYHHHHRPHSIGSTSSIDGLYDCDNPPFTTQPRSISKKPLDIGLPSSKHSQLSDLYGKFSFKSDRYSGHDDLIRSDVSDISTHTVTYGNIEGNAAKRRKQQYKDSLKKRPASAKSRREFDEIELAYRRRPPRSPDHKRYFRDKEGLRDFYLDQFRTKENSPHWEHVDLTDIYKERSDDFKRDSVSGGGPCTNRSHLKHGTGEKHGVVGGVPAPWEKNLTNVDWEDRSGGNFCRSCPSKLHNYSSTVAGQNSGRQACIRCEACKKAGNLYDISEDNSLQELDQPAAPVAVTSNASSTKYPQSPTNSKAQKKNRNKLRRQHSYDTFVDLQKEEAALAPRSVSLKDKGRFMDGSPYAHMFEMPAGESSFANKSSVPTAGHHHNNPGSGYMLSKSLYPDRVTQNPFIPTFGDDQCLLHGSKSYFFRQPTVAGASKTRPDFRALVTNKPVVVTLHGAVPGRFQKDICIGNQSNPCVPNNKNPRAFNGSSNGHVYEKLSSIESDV

## O=C(Nc1ccc2[nH]c(=O)oc2c1)C(=O)N1CCC(Cc2ccc(F)cc2)CC1 [Radiprodil]
[1]
  AUCinf Geometric LSM Ratio (Fed/Fasted): 148.4%
  AUClast Geometric LSM Ratio (Fed/Fasted): 155.8%
  Cmax Geometric LSM Ratio (Fed/Fasted): 259.6%
[1]; Fasted
  AUC(0-inf): 1890 ng·h/mL
  AUC(0-t): 1780 ng·h/mL
  Cmax: 81.3 ng/mL
[1]; Fed
  AUC(0-inf): 2810 ng·h/mL
  AUC(0-t): 2770 ng·h/mL
  Cmax: 211 ng/mL
[2]
  anticonvulsant efficacy in audiogenic seizure model: anticonvulsant activity in the same range of doses/exposures
[3]; 10 mg/kg
  NR2B occupancy: ~90%
[3]; orally administered 1 mg/kg, calculated free plasma fraction, 1:1 brain to plasma ratio assumed
  occupancy of the NR2B receptor: around 60%
[4]; 10 mg/kg, postnatal day 12 and postnatal day 18 rats
  tonic phases of PTZ-induced convulsions: completely blocked
[4]; tested up to 30 mg/kg
  dose showing efficacy in juvenile PTZ rat model: 1 mg/kg
[5]
  NOAEL at 13 weeks: 1.5 mg/kg/day
[5]; 1.5 mg/kg/day
  AUC(0-t): 3750 ng·h/mL
  Cmax: 722 ng/mL
[6]; Behavioral Cohort (n = 7)
  Abnormal behavior, %: 28.6%
  Agitation, %: 28.6%
  Any TEAE, %: 85.7%
  Cough, %: 14.3%
  Diarrhea, %: 28.6%
  Dystonia, %: 14.3%
  Fatigue, %: 28.6%
  Gastroenteritis, %: 14.3%
  Pyrexia, %: 14.3%
  Respiratory tract infection, %: 28.6%
[6]; [14]
  patients with SAEs: Three
[6]; behavioral cohort
  tolerability: generally well-tolerated
[7]; dog, plasma, at 6-months, read-out: average AUC0-24h
  AUC(0-t): 7060 ng·h/mL
[7]; up to 6 months
  seizures or convulsions: no seizures or convulsions were observed
[8]; [15]
  AUC0-4: up to 1036 ng×h/mL
  AUC(0-t): up to 1036 ng×h/mL
  Cmax: up to 208 ng/mL
[8]; 3 infants, treatment for up to 34 days
  safety and tolerability: safe and well tolerated
[9]; Seizure Cohort (n = 8)
  Abnormal behavior, %: (12.5) %
  Agitation, %: (12.5) %
  Any TEAE, %: (100) %
  Cough, %: (25.0) %
  Diarrhoea, %: (25.0) %
  Dystonia, %: (25.0) %
  Fatigue, %: (12.5) %
  Gastroenteritis, %: (25.0) %
  Pyrexia, %: (50.0) %
  Respiratory tract infection, %: (25.0) %
[9]; [14]
  patients with SAEs: Three
[9]; seizure cohort
  tolerability: generally well-tolerated
[10]; 8-week maintenance period
  median reduction in CMS: ~86%
  patients seizure-free during 80% of days: 6 of 7
  patients with reduction in CMS of 100%: 14.3%
  patients with reduction in CMS of ≥50%: 71.4%
  patients with reduction in CMS of ≥90%: 42.9%
[10]; seizure cohort
  patients with reductions from baseline in CMS frequency: 6 of 7
[10]; seizure cohort, clinicians and caregivers
  CGI-C and CaGI-C: clinical improvement in most patients
[11]
  AUC: 9550 ng·h/mL
  AUC0-24h at NOAEL: 9,555 ng×h/mL
  AUC(0-t): 9560 ng·h/mL
  Cmax: 1400 ng/mL
  Cmax at NOAEL: 1404 ng/mL
  NOAEL at 4 weeks: 100 mg/kg/day
  exposure (total Cmax and AUC) of 0.05 mg/kg bid lower than NOAEL exposure: more than 20 fold
[11]; 4 weeks
  NOAEL: 100 mg/kg/day
[12]
  AUC: 9000 ± 2387 ng·h/mL
  AUC0-24h: 6875 ng·h/mL
  Cmax: 487 ± 129 ng/mL and 482 ± 129 ng/mL
[13]
  CGI-C and CaGI-C: clinical improvement in most patients
